According to article PMC8881077 (Journal of Enzyme Inhibition and Medicinal Chemistry, 2022):
“And” between values parts separate entries of the source, which are not always exact repeats. Equal entries are not always repeated. Where two headings read alike, the source gives them in different places.

What was measured:
ratAChE = biological target: T1, ratAChE (Rattus norvegicus, UniProt P37136); assay: biochemical; details: for SI: Selectivity Index = IC50 (BuChE)/IC50 (AChE), rat enzymes; for IC50: from 5% rat cortex homogenate, read-out: IC50 ± SD ratAChE
T1 construct: AChE from 5% rat cortex homogenate or human erythrocytes (Sigma Co.); from tissue; host or cells: 5% rat cortex homogenate
T1 sequence (P37136 32-614): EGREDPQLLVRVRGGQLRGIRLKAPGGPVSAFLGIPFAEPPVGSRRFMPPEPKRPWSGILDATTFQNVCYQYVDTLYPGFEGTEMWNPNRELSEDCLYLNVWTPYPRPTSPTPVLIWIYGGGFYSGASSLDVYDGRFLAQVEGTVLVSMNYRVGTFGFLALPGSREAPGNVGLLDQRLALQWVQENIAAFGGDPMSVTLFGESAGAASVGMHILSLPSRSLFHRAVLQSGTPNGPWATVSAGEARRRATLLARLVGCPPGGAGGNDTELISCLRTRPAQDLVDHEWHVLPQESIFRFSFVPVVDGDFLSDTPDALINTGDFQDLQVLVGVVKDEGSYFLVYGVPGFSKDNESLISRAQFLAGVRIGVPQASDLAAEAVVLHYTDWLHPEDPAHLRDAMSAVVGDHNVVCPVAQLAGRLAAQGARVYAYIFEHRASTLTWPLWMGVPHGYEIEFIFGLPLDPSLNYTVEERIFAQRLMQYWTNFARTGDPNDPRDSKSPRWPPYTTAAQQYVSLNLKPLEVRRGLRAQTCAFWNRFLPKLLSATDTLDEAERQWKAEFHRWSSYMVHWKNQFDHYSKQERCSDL
Method: (§1) The AChE and BuChE inhibitory activities of the synthesised compounds were evaluated using the Ellman assay with slight modification. AChE from 5% rat cortex homogenate or human erythrocytes (Sigma Co.). BuChE from rat serum or human serum (Sigma Co.).

PC12 cells [1] = assay: Neuroprotective effect on H2O2-induced PC12 cells injury, MTT assay; assay type: cell-based; details: 100 μM H2O2, PC12 cells
huAChE [2] = biological target: T2, huAChE (Homo sapiens, UniProt P22303); assay: Enzyme kinetic study of huAChE (Lineweaver-Burk); assay type: biochemical; parameters: AChE from human erythrocytes (Sigma Co.); purchased Sigma Co; host or cells: human erythrocytes; details: for type of AChE inhibition: Lineweaver-Burk plot; for Ki: replots of slope versus concentration, read-out: inhibition constant Ki
Source text: An enzyme kinetic study was applied to determine the mechanism of AChE inhibition for compounds 5f and 7k. The lineweaver-Burk double reciprocal plot was used to define the inhibition by plotting the initial velocities of the substrate at the y-axis and increasing concentrations of the substrate at the x-axis[17]^,[19]. […] […].
Figure 3. Enzyme kinetic study on the mechanism of huAChE inhibition by compounds 5f and 7k. […] (D) Representing the plots of slope versus the concentration of 7k for determining the inhibition constants Ki. […] |

huAChE [3] = biological target: T2, huAChE; assay type: biochemical; parameters: AChE from human erythrocytes (Sigma Co.); purchased Sigma Co; host or cells: human erythrocytes; details: for huAChE activity restored: 0.1 × IC50, at 60 min, Figure 2B; for huAChE activity increase when diluted to 0.1 × IC50: Figure 2A, dilution to 0.1 × IC50
Method: In order to further explore the reversibility of inhibition, the recovery of huAChE inhibitors inhibition after dilution was carried out with time monitoring.
Data were expressed as the mean ± SEM by three independent experiments.

PC12 cells [4] = assay: Cytotoxicity on PC12 cells, MTT assay; assay type: cell-based; details: 40 μM
huAChE [5] = biological target: T2, huAChE; assay: biochemical; assay type: biochemical; parameters: AChE from 5% rat cortex homogenate or human erythrocytes (Sigma Co.); purchased Sigma Co; host or cells: human erythrocytes; details: for SI: Selectivity Index = IC50 (BuChE)/IC50 (AChE), human enzymes; for IC50: from human erythrocytes, read-out: IC50 ± SD huAChE
Method: as §1

[6] = for ORAC: Trolox as standard
Method: The skeleton compounds naringenin and apigenin were also evaluated for comparison purposes, and vitamin E analogue Trolox was used as a standard.
The antioxidant potency of target compounds was tested using an oxygen radical absorbance capacity fluorescein (ORAC-FL) assay.

ratBuChE = biological target: T3, ratBuChE (Rattus norvegicus, UniProt Q9JKC1); assay: ratBuChE inhibition, modified Ellman's method; assay type: biochemical
T3 construct: BuChE from rat serum or human serum (Sigma Co.); from tissue; host or cells: rat serum
Method: as §1

AChE PAS = AChE PAS (Homo sapiens, UniProt P22303); assay: biochemical; assay type: binding
[7] = system: TNF-α production in LPS-induced BV-2 cells; assay: TNF-α production in BV-2 cells, ELISA; assay type: cell-based; details: 1.0 μg/mL LPS
Method: Compounds 5f and 7k were selected to test the anti-inflammatory potency by measuring the production of inflammatory mediators TNF-α and NO in LPS-induced BV-2 cells[32]^,[33]. • Cytotoxicity of compounds 5f and 7k on BV-2 cells. Firstly, the cytotoxicity of compounds 5f and 7k were tested using an MTT assay. […] In inhibition of LPS-induced, NO production was tested through the Griess reaction method. […] In addition, to further investigate the effects of compounds 5f and 7k on LPS-induced TNF-α production in BV-2 cells, the enzyme-linked immunosorbent assay (ELISA) was used.
Inhibition of LPS-induced TNF-α production was evaluated with an enzyme-linked immunosorbent assay (ELISA). The methods of BV-2 cells culture, adding different concentrations of tested compounds 5f or 7k (1 μM, 3 μM and 9 μM) (10 μL) and LPS (1.0 μg/mL, 10 μL) and setting blank control group were the same as above in cytotoxicity assay. Then, the supernatant of the cell culture solution (50 μL) was added to a 96-well plate and the release of cytokine TNF-α was measured by ELISA according to the instructions of the ELISA kit.

[8] = PAMPA-BBB; for Pe: final concentration 100 μg/mL
[9] = biological target: huAChE-induced Aβ1–40 aggregation (Homo sapiens, UniProt P22303); assay: huAChE-induced Aβ1–40 aggregation, ThT assay; assay type: biochemical; details: inhibitor 100 μM, Aβ1–40 230 μM, Aβ1–40/AChE ratio 100/1
Aβ1–42 = Aβ1–42 (Homo sapiens, UniProt P05067); assay: Cu^2+-induced Aβ1–42 aggregation, ThT fluorescence; assay type: biochemical; details: tested compounds and Aβ1–42 25 μM
Sequence of Aβ1–42 (P05067 672-713): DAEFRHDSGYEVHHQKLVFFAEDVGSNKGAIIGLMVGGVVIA
Method: Curcumin was also tested as a referenced compound.
The Thioflavin T-based flurometric assay was employed to test the inhibition potency on self-induced/Cu^2+-induced Aβ1-42 aggregation.

T2 sequence (P22303 32-617 isoform P22303-2 limits assumed): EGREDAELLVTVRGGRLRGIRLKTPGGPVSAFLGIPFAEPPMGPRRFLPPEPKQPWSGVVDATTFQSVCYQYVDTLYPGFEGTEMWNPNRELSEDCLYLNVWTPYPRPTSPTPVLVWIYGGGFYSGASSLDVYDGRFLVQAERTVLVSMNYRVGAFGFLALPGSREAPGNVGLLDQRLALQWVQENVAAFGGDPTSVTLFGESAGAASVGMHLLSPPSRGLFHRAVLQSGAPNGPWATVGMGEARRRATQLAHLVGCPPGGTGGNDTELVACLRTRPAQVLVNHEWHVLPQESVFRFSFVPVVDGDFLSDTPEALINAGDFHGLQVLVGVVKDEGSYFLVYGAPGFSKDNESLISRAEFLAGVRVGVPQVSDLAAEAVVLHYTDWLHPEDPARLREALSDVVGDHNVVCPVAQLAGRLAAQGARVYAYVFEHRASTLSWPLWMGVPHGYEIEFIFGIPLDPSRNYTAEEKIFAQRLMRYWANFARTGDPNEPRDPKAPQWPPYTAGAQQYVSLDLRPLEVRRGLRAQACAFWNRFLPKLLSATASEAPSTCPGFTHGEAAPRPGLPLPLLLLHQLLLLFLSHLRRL
Sequence of AChE PAS (P22303 32-614): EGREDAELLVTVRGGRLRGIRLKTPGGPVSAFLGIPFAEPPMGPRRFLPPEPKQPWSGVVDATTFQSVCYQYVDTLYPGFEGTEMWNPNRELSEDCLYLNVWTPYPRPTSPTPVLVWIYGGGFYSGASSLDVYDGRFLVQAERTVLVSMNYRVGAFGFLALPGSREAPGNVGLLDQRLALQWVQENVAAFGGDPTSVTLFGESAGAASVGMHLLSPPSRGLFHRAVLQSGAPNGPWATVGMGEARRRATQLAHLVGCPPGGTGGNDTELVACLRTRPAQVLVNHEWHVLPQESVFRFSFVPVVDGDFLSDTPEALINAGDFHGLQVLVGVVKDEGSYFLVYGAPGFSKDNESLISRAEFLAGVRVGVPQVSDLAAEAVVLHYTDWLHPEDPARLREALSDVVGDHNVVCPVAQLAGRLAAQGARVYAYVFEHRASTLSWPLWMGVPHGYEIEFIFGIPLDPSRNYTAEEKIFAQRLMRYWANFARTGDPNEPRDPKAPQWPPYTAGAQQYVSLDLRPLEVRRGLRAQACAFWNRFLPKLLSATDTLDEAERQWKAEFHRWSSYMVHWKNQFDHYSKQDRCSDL
Sequence of huAChE-induced Aβ1–40 aggregation (P22303 32-588 isoform P22303-2): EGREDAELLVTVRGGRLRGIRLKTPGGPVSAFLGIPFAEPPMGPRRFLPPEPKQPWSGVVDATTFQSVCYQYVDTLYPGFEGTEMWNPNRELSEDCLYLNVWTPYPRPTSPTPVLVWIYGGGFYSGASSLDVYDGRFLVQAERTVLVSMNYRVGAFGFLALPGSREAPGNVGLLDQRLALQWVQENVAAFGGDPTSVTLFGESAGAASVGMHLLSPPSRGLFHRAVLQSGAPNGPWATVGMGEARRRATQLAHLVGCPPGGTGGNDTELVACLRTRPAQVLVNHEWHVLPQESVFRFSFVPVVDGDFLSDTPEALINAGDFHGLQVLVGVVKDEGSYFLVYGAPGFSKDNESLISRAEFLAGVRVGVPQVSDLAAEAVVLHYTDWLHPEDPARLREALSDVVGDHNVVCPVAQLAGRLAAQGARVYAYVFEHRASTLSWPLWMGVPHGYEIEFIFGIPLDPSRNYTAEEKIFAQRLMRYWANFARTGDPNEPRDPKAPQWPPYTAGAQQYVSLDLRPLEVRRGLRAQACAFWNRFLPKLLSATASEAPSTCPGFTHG
T3 sequence (Q9JKC1 24-597): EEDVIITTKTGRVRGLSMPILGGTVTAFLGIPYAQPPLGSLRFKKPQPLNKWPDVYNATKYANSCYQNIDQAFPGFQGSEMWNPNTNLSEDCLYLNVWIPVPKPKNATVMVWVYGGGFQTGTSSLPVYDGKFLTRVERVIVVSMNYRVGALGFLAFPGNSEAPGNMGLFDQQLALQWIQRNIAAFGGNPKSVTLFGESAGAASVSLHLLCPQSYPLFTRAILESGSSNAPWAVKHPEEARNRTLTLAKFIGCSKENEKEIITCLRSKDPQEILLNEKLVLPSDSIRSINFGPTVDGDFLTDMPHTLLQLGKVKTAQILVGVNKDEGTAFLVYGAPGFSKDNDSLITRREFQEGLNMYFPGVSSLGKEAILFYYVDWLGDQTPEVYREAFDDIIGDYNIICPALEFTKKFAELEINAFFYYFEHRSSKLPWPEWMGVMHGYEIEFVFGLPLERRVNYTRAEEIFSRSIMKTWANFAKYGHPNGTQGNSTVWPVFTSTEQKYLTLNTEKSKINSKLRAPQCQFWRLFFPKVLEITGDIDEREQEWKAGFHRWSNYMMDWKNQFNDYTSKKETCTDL

In the case of “7-((6-(benzyl(ethyl)amino)hexyl)oxy)-2–(4-((6-(benzyl(ethyl)amino)hexyl)oxy)phenyl)-5-hydroxychroman-4-one [Compound 7k]”, the SI (ratAChE) is reported as 18.7, the IC50 (ratAChE) is reported as 790 ± 60 nM and the cell viability (PC12 cells [1]; compound 2.5 μM) is reported as 58.3%. For the same molecule, the cell viability (PC12 cells [1]; compound 5.0 μM) was 63.7%, the cell viability (PC12 cells [1]; compound 10.0 μM) was 69.8% and the “type of AChE inhibition” value (huAChE [2]) was “mixed-type”. The Ki (huAChE [2]) was 390 nM, the “reversibility of huAChE inhibition” value (huAChE [3]) was “reversible” and the “huAChE activity (% control)” value (huAChE [3]; 0.1*IC50, diluted) was 61.2 % control. The huAChE activity restored (huAChE [3]) was 96.8%, the “huAChE activity (% control)” value (huAChE [3]; 1*IC50, diluted) was 53.4 % control and the “huAChE activity (% control)” value (huAChE [3]; 1*IC50, undiluted) was 52.6 % control. The “huAChE activity increase when diluted to 0.1 × IC50” value (huAChE [3]) was 7.8%, the “cytotoxicity on PC12 cells” value (PC12 cells [4]) was “did not show any cytotoxicity” and the SI (huAChE [5]) was 14.4. For the same molecule, the IC50 (huAChE [5]) was 570 ± 20 nM, the ORAC [6] was 1.2 ± 0.02 μM of Trolox equivalent/μM of tested compound and the IC50 (ratBuChE; BuChE from rat serum, read-out: IC50 ± SD ratBChE) was 14800 ± 360 nM. For the same molecule, the “Propidium iodide displacement from AChE PAS (% inhibition)” value (AChE PAS; 10 μM) was 23.1 ± 1.2%, the “Propidium iodide displacement from AChE PAS (% inhibition)” value (AChE PAS; 50 μM) was 34.3 ± 2.1% and the TNF-α production ([7]; 1 μM) was 1295 pg/mL. The “inhibitory rate of TNF-α production” value ([7]; 1 μM) was 23.8%, the TNF-α production ([7]; 3 μM) was 915 pg/mL and the “inhibitory rate of TNF-α production” value ([7]; 3 μM) was 46.2%. For the same molecule, the TNF-α production ([7]; 9 μM) was 553 pg/mL, the “inhibitory rate of TNF-α production” value ([7]; 9 μM) was 67.5% and the Prediction [8] was “CNS+ (Pe > 3.44 displayed high BBB permeation)”. The Pe [8] was 11.7 ×10^−6 cm/s and 11.7 ± 0.54 ×10^−6 cm/s, the “Inhibition of huAChE-induced Aβ1–40 aggregation (%)” value [9] was 43.4 ± 0.43% and the “Inhibition of Aβ1–42 aggregation, Cu^2+-induced (%)” value (Aβ1–42) was 68.7 ± 0.46%.
Work on `CCN(CCCCCOc1cc(O)c2c(c1)OC(c1ccc(O)cc1)CC2=O)Cc1ccccc1` (stereo not shown) [Compound 5f, 7-((5-(benzyl(ethyl)amino)pentyl)oxy)-5-hydroxy-2–(4-hydroxyphenyl)chroman-4-one] yielded an SI (ratAChE) of 9.9, an IC50 (ratAChE) of 1700 ± 80 nM and a viability at 2.5 µM (PC12 cells [1]; Rattus norvegicus, PC-12, compound 2.5 μM, read-out: cell viability) of 62.9%. The viability at 5 µM (PC12 cells [1]; Rattus norvegicus, PC-12, compound 5.0 μM, read-out: cell viability) was 68.2%, the viability at 10 µM (PC12 cells [1]; Rattus norvegicus, PC-12, compound 10.0 μM, read-out: cell viability) was 73.4% and the “type of AChE inhibition” value (huAChE [2]) was “mixed-type”. For the same molecule, the Ki (huAChE [2]) was 740 nM, the “reversibility of huAChE inhibition” value (huAChE [3]) was “reversible” and the “huAChE activity (% control)” value (huAChE [3]; 0.1*IC50, diluted) was 55.6 % control. The huAChE activity restored (huAChE [3]) was 89.8%, the “huAChE activity (% control)” value (huAChE [3]; 1*IC50, diluted) was 48.7 % control and the “huAChE activity (% control)” value (huAChE [3]; 1*IC50, undiluted) was 47.9 % control. For the same molecule, the “huAChE activity increase when diluted to 0.1 × IC50” value (huAChE [3]) was 6.9%, the “cytotoxicity on PC12 cells” value (PC12 cells [4]) was “did not show any cytotoxicity” and the SI (huAChE [5]) was 6.9. The IC50 (huAChE [5]) was 910 ± 20 nM, the ORAC values [6] was 2.3 eq and the ORAC [6] was 2.3 ± 0.03 μM of Trolox equivalent/μM of tested compound. The IC50 (ratBuChE) was 16900 ± 270 nM, the inhibition at 10 µM (AChE PAS; 10 μM, read-out: Propidium iodide displacement from AChE PAS (% inhibition)) was 25.7 ± 1.9% and the inhibition at 50 µM (AChE PAS; 50 μM, read-out: Propidium iodide displacement from AChE PAS (% inhibition)) was 36.9 ± 3.5%. The TNF-α production ([7]; 1 μM) was 1130 pg/mL, the TNF-α production ([7]; 3 μM) was 728 pg/mL and the TNF-α production ([7]; 9 μM) was 394 pg/mL. The inhibition at 1 µM ([7]; Mus musculus, BV-2, 1 μM, read-out: inhibitory rate of TNF-α production) was 33.5%, the inhibition at 3 µM ([7]; Mus musculus, BV-2, 3 μM, read-out: inhibitory rate of TNF-α production) was 57.2% and the inhibition at 9 µM ([7]; Mus musculus, BV-2, 9 μM, read-out: inhibitory rate of TNF-α production) was 76.8%. For the same molecule, the Prediction [8] was “CNS+ (Pe > 3.44 displayed high BBB permeation)”, the Pe [8] was 6.9e-06 cm/s and the “Inhibition of huAChE-induced Aβ1–40 aggregation (%)” value [9] was 51.7 ± 0.75%. It also gave an inhibition at 25 µM (Aβ1–42) of 73.5 ± 0.25%.
